Experimental data taken from US20070093469A1, “Substituted azetidine compounds as cyclooxygenase-1-cyclooxygenase-2 inhibitors, and their preparation and use as medicaments” (LABORATORIOS DEL DR. ESTEVE S.A, priority 2004, published 2007).

How the values were obtained:
Cox-2 = molecular target: T1, Cox-2 (Homo sapiens, UniProt P35354); test: Cox-2 activity in human whole blood (LPS, PGE2); assay type: cell-based; details: read-out: hWB inhibition COX-2 IC50
T1 construct: 0.5 ml of fresh human blood; from tissue; host or cells: fresh human whole blood stimulated with E. coli 0111:B4 LPS
T1 sequence (P35354 18-604): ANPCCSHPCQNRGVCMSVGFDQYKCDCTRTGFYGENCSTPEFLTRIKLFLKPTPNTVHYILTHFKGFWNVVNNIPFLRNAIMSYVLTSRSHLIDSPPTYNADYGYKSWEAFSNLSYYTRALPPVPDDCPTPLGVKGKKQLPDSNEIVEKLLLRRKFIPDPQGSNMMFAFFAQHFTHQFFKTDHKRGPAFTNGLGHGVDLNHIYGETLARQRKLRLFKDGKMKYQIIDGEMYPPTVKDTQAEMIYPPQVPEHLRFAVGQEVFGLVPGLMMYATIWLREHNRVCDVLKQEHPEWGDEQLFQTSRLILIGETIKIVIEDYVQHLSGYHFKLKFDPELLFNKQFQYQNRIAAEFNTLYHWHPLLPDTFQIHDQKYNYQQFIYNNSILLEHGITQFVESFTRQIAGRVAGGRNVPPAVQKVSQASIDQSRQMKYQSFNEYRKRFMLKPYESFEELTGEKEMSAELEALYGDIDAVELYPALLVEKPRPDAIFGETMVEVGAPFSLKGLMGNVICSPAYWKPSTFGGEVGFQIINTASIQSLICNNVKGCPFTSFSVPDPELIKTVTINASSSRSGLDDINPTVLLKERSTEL
Description: (§1) II. Determination of Cox-1- and Cox-2-Activity in Human Whole Blood
(§2) The Cox-1- and Cox-2-activity in human whole blood is determined according to a modification of the method described in the publication of C. Brideau et al., “A human whole blood assay for clinical evaluation of biochemical efficacy of cyclooxygenase inhibitors”, Inflamm Res 1996; 45: 68-74. The respective part of the description is hereby incorporated by reference and forms part of the present disclosure.
For Cox-2 activity determination, tubes are prepared with 2 μl of the compound to be tested or DMSO, 12 μg/ml of aspirine, 9 μl of 1% (weight/volume) sodium heparine and 0.5 ml of fresh human blood. Samples are pre-incubated at 37° C. during 15 minutes and E. coli 0111:B4 LPS (from Sigma Chemical, St. Louis, Mo. U.S.A., catalogue number L-3012) are added for incubation during 24 h at 37° C. The samples are centrifuged for 100 μl of plasma collection. 400 μl of Ethyl acetate and 1% (volume/volume) methanol are added to each sample and the tubes are stirred and centrifuged for 10 minutes at 5000 g at 4° C. 300μl of supernatant are aspirated and evaporated under nitrogen atmosphere. Prostaglandin E2 concentration is quantified using an assay kit from Cayman Chemical, Ann-Arbor, Mich., U.S.A. (Catalogue number: 514010 ) after reconstitution into 300 μl assay buffer supplied in the assay kit.

Cox-1 = molecular target: T2, Cox-1 (Homo sapiens, UniProt P23219); test: Cox-1 activity in human whole blood (TXB2); assay type: cell-based; details: read-out: hWB inhibition COX-1 IC50
T2 construct: from tissue; host or cells: fresh human whole blood
T2 sequence (P23219 24-599): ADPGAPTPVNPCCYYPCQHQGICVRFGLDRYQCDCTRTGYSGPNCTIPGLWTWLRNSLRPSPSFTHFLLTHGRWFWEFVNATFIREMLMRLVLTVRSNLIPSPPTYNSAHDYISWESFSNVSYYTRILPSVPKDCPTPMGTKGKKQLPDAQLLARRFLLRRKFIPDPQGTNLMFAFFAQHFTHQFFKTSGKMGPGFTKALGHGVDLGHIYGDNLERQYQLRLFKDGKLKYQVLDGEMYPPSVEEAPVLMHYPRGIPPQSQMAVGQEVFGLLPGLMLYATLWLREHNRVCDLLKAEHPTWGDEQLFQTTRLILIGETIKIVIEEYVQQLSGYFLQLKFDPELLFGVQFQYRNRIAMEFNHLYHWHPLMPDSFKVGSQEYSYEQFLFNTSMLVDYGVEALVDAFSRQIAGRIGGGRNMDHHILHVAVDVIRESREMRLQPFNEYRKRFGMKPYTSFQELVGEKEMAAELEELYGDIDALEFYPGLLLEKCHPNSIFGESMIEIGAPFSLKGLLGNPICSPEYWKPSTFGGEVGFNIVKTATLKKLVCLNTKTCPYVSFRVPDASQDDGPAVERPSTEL
Description: as §1, §2
For Cox-1 activity determination, fresh human blood is distributed in a volume of 0.5 ml to silicone Eppendorf tubes, into which 2 μl of the compound to be tested or dimethylsulfoxide (DMSO) at a final concentration of 0.4% (volume/volume). The tubes are inverted for homogenization and incubated for 1 hour at 37° C. under slight stirring. Afterwards they are centrifuged for 15 min at 10500 g and 100 μl of serum is collected. Proteins are precipitated by the addition of 400 μl of methanol to each tube, tubes were centrifuged for 10 minutes at 5000 g and 300 μl of supernatant is aspirated and then dried under nitrogen atmosphere.
Tromboxane B2 (TXB2) concentration is quantified using an assay kit (Caymann Chemical, Ann Arbor, Mich., U.S.A., Catalogue number 519031) after reconstitution into 300 μl assay buffer supplied in the assay kit.

Cox-1 enzyme = molecular target: T3, Cox-1 enzyme (Ovis aries, UniProt P05979); test: Cox-1/Cox-2 enzyme assay (Cox-1); assay type: biochemical; details: for IC50: enzyme assay; for inhibition at 50 µM: read-out: % inhibition 5 × 10^−5 M COX-1
T3 construct: purchased Cayman Chemical 60100
T3 sequence (P05979 25-600): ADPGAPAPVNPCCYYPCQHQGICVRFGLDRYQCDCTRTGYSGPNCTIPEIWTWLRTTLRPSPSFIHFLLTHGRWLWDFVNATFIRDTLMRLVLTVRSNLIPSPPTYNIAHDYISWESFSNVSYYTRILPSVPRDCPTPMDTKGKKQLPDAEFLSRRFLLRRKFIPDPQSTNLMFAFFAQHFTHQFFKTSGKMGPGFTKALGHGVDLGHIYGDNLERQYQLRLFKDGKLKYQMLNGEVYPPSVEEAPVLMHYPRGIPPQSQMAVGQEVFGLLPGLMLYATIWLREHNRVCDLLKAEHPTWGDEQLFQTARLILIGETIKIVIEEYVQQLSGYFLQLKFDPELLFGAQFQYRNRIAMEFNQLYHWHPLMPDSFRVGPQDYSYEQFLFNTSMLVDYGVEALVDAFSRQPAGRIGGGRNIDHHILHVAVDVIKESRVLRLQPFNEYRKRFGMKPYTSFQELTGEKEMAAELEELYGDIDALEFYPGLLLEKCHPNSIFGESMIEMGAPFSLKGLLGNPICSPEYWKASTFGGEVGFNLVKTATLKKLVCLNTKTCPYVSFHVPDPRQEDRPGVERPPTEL
Description: (§3) I. Cox-1/Cox-2 Enzyme Assay:
(§4) The Cox-1/Cox-2 enzyme assay for the inventive azetidine compounds is carried out according to the following description:
(§5) Immediately after the addition of the substrate, the slope corresponding to the optical density increase at 480 nm is recorded for 1 minute. The reaction is monitored with a Hewlett-Packard 8452A spectrophotometer.

Cox-2 enzyme = molecular target: T4, Cox-2 enzyme (Ovis aries, UniProt P79208); test: Cox-1/Cox-2 enzyme assay (Cox-2); assay type: biochemical; details: for IC50: enzyme assay
T4 construct: purchased Cayman Chemical 60120
T4 sequence (P79208 17-603): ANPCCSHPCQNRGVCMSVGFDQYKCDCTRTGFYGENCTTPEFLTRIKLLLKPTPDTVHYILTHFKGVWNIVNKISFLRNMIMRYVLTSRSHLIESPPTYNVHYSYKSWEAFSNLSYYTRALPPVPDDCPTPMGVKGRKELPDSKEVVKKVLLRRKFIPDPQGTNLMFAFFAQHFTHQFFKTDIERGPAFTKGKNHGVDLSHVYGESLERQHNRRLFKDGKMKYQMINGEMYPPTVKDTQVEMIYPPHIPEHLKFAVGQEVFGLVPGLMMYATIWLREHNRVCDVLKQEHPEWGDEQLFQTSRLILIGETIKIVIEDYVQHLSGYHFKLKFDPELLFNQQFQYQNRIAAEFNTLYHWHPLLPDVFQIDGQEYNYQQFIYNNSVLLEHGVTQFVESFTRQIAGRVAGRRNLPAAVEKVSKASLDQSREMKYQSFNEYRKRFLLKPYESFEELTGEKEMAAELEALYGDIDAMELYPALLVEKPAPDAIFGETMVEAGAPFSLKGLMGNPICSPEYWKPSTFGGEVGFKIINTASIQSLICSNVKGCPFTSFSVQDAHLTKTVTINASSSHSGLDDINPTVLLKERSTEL
Description: as §3, §4, §5

rats = test: Test for antiarthritic activity in rats (adjuvant); assay type: in vivo; details: Rattus norvegicus, daily oral route from day 15, read on day 25
Description: V: Test for Antiarthritic Activity in Rats
The test for antiarthritic activity is carried out as described in the publication of Anderson et al., J. Clin. Invest. 97, 11, 2672-2679, (1996). The respective part of the description is hereby incorporated by reference and forms part of the present disclosure.
On day 0 of the experiment, the volumes of the contralateral paws to those injected, i.e. left hind paws, are measured by means of a pletismometer, the readings of which are expressed in ml.
Next, each rat is injected the adjuvant, consisting of 1 mg of Mycobacterium butyricum suspended in 0.1 ml of mineral oil, via subplantar route in the right hind paw.
Approximately every day, and for 15 days after the injection of adjuvant, the volumes of non-injected hind paws (contralateral) are measured again. […]
On day 15 of the experiment, daily administration of the compounds to be tested via oral route is started, and on each day, the volumes of non-injected hind paws is recorded.
On Day 25 of the experiment, the body weights and non-injected hind paws (contralateral) volumes are measured for the last time, and these values were used to determine the activities.

Row | SMILES | IC50 (Cox-2) [nM] | IC50 (Cox-1) [nM] | IC50 (Cox-1 enzyme) [nM] | IC50 (Cox-2 enzyme) [nM] | melting point [°C] | ED50 (rats) [mg/kg] | inhibition at 50 µM (Cox-1 enzyme) [%] | inhibition at 50 µM (Cox-2 enzyme; read-out: % inhibition 5 × 10^−5 M COX-2) [%]
1 | CC1(O)CN(C(=O)c2cc(C(C)(C)C)c(O)c(C(C)(C)C)c2)C1 [Example 3, (3,5-di-tert-butyl-4-hydroxy-phenyl)-(3-hydroxy-3-methyl-azetidin-1-yl)-methanone] | 100 | 100 | 349000 | 3510 | 148 to 153 | 0.34 | – | –
2 | CC(C)(C)c1cc(C(=O)N2CC(Br)C2)cc(C(C)(C)C)c1O [Example 7, (3-Bromo-azetidin-1-yl)-(3,5-di-tert-butyl-4-hydroxy-phenyl)-methanone] | – | – | – | 200 | 160 to 163 | – | 35 | –
3 | CC(C)(C)c1cc(CC(=O)N2CC(O)C2)cc(C(C)(C)C)c1O [Example 18, 2-(3,5-di-tert-butyl-4-hydroxy-phenyl)-1-(3-hydroxy-azetidin-1-yl)-ethanone] | – | – | – | – | 154 to 156 | – | 4 | 1
4 | CC(C)(C)c1cc(C(=O)N2CC(O)C2)cc(C(C)(C)C)c1O [Example 1, (3,5-di-tert-butyl-4-hydroxy-phenyl)-(3-hydroxy-azetidin-1-yl)-methanone] | 200 | 100 | 37700 | 1510 | 185 to 189 | 0.5 | – | –
